The source of these data is US10072026B2, “Crystalline form of 3-((1R,3s,5S)-3-((7-((5-methyl-1H-pyrazol-3-yl)amino)-1,6-naphthyridin-5-yl)amino)-8-azabicyclo[3.2.1]octan-8-yl)propanenitrile” (priority 2015, dated 2018).

Some results are limits rather than exact numbers.

In one experiment the target is Tyk2 (Homo sapiens (Human), UniProt P29597). The experiment is described as follows: LanthaScreen JAK biochemical assay (Tyk2). The settings on record: for Ki: read-out: Tyk 2 (pKi) (converted). In general terms: Time-resolved FRET reads energy transfer from a long-lived donor to a nearby acceptor.
The test system of experiment [1] is IL-4 induced STAT6 phosphorylation in THP-1 human monocytic cells. The experiment is described as follows: Cellular JAK potency assay, THP-1.
Another experiment addresses JAK2 (Homo sapiens (Human), UniProt O60674). The experiment is described as follows: LanthaScreen JAK biochemical assay (JAK2). The following applies: for Ki: read-out: JAK 2 (pKi) (converted).
The target in a further experiment is JAK1 (Homo sapiens (Human), UniProt P23458). Put plainly: LanthaScreen JAK biochemical assay (JAK1).
Setting [2] is: Homo sapiens, THP-1, read-out: THP-1 IL4 pIC50 (converted).
[3] abbreviates: IL-4 induced STAT6 phosphorylation, THP-1 cells.
[4] abbreviates: THP-1 cells, IL-4 induced STAT6 phosphorylation.

Tyk2, sequence (P29597 whole entry): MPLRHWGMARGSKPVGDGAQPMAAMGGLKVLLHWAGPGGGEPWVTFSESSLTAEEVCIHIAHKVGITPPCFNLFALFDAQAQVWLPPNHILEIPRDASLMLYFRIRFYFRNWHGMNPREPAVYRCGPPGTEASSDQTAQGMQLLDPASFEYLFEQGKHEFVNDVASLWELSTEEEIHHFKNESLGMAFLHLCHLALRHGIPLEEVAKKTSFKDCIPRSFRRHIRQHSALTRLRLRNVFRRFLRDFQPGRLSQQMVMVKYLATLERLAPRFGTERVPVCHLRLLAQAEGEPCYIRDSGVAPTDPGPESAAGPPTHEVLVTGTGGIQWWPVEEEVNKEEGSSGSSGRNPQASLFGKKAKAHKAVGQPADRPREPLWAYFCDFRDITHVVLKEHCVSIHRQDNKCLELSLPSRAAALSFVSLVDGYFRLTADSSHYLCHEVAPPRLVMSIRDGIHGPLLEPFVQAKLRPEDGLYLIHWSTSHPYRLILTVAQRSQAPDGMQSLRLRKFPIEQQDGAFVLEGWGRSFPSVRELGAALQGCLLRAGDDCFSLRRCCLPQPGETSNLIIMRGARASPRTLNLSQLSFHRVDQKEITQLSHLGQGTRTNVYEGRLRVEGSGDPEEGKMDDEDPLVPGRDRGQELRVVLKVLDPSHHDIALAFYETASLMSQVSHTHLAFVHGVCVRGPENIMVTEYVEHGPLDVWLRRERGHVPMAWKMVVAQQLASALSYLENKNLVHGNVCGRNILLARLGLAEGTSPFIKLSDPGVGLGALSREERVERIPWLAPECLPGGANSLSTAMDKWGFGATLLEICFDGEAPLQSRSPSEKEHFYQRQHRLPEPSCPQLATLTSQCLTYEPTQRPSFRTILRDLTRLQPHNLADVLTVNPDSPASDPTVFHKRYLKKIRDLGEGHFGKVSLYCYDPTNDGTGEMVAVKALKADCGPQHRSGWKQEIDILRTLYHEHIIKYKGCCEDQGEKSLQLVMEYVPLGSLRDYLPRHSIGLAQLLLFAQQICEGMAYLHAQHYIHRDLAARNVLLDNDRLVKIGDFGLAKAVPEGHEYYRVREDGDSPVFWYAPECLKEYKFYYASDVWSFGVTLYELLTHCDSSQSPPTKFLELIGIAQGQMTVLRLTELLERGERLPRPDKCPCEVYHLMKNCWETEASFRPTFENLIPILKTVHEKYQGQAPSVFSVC
JAK2, sequence (O60674 whole entry): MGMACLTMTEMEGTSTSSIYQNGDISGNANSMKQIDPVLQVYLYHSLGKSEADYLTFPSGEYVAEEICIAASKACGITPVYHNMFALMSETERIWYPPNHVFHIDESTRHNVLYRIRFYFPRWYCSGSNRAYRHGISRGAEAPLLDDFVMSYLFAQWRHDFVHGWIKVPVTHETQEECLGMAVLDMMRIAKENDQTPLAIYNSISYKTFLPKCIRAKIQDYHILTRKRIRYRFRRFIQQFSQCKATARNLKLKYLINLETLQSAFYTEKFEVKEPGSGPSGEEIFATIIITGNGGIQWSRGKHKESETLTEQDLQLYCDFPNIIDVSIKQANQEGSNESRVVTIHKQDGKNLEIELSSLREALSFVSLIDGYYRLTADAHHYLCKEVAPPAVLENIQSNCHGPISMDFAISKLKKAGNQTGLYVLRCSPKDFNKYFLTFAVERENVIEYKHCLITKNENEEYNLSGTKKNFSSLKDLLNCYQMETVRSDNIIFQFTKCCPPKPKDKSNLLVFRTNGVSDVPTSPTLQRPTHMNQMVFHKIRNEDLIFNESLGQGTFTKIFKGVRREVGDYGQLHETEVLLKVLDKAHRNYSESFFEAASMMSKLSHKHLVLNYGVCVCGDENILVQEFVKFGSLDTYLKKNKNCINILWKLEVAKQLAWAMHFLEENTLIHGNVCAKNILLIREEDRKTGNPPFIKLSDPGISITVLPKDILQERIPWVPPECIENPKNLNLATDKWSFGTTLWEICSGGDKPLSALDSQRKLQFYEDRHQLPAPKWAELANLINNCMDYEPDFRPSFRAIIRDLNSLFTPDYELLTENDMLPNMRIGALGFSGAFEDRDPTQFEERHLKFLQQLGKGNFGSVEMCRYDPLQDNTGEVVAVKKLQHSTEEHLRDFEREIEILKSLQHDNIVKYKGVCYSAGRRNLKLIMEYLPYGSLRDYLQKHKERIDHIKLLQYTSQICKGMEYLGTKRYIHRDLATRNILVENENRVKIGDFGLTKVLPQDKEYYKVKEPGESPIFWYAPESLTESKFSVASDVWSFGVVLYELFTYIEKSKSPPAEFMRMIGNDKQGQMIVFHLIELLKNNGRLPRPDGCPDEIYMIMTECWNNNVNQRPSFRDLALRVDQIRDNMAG
JAK1, sequence (P23458 whole entry): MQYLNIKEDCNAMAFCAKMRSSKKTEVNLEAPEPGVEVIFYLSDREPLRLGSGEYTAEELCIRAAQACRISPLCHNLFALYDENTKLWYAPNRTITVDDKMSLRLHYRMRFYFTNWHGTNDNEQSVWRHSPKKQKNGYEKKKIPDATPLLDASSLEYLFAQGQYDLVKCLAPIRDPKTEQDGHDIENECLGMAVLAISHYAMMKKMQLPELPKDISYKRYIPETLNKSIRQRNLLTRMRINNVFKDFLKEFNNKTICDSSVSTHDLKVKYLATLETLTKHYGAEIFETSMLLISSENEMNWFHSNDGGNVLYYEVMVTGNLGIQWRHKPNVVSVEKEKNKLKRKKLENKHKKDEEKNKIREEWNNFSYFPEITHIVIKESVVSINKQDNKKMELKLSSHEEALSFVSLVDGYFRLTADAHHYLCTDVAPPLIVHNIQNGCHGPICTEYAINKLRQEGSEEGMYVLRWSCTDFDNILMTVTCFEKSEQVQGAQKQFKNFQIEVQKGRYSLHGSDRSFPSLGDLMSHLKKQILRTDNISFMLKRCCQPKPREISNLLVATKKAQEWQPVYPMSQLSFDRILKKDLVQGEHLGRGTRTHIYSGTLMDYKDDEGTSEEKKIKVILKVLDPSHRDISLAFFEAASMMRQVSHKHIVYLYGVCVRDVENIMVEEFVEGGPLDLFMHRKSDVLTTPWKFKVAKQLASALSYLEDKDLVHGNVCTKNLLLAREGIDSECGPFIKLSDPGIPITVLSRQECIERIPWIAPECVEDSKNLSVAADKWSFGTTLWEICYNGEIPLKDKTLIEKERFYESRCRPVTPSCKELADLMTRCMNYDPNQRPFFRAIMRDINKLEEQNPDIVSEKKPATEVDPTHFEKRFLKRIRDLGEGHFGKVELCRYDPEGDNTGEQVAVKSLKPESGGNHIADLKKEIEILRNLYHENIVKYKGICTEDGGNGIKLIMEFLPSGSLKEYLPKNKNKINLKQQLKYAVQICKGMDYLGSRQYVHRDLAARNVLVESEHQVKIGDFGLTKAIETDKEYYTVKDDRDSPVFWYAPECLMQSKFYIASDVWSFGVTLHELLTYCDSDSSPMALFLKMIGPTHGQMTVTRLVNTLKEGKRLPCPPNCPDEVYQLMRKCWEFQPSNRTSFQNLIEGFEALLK

On to `CCC1(S(=O)(=O)N2[C@@H]3CC[C@H]2C[C@H](Nc2nc(Nc4cc(C)[nH]n4)cc4ncccc24)C3)CC1` [Example 4-7], for which the Ki on Tyk2, on JAK2 and at JAK1 was 0.1 to 1 nM throughout. In addition, in experiment [1] (setting [2]), the IC50 is < 31.6 nM.
Regarding `Cc1cc(Nc2cc3ncccc3c(N[C@@H]3C[C@H]4CCC[C@@H](C3)N4S(=O)(=O)CC(C)C)n2)n[nH]1` [Example 4-17], the “Tyk 2 (pKi)” value on Tyk2 was “B (B represents a pKi value between 9 and 10 (Ki between 1 nM and 0.1 nM))”. Further, the “THP-1 IL4 pIC50” value in experiment [1] (setting [3]) is “A (A represents a pEC50 value≥7.5 (EC50≤32 nM))”. Also, at JAK2, the “JAK 2 (pKi)” value was “B (B represents a pKi value between 9 and 10 (Ki between 1 nM and 0.1 nM))”. For the same molecule, the “JAK 1 (pKi)” value at JAK1 is “B (B represents a pKi value between 9 and 10 (Ki between 1 nM and 0.1 nM))”.
With `Cc1cc(Nc2cc3nc(CN4CCOCC4)ccc3c(N[C@@H]3C[C@H]4CCC[C@@H](C3)N4CCC#N)n2)n[nH]1` [Example 5-26], on Tyk2, the “Tyk 2 (pKi)” value is “B (B represents a pKi value between 9 and 10 (Ki between 1 nM and 0.1 nM))”. Also, in experiment [1] (setting [3]), the “THP-1 IL4 pIC50” value is listed as “A (A represents a pEC50 value≥7.5 (EC50≤32 nM))”. Further, at JAK2, the “JAK 2 (pKi)” value is “A (A represents a pKi value≥10 (Ki≤0.1 nM))”. Moreover, at JAK1, the “JAK 1 (pKi)” value is listed as “A (A represents a pKi value≥10 (Ki≤0.1 nM))”.
Turning to `Cc1cc(Nc2cc3nc(CN4CCN(C)CC4)ccc3c(N[C@@H]3C[C@H]4CC[C@@H](C3)N4S(=O)(=O)N3CCC3)n2)n[nH]1` [Example 5-39], the Ki on Tyk2, at JAK2 and at JAK1 was 0.1 to 1 nM in each case. Further, in experiment [1] (setting [2]), the IC50 was 31.6 to 200 nM.
`Cc1cc(Nc2cc3nc(CS(C)(=O)=O)ccc3c(N[C@@H]3C[C@H]4CC[C@@H](C3)N4CCF)n2)n[nH]1` [Example 5-41]: the “Tyk 2 (pKi)” value at Tyk2 is “B (B represents a pKi value between 9 and 10 (Ki between 1 nM and 0.1 nM))”. The “THP-1 IL4 pIC50” value in experiment [1] (setting [3]) was “C (C represents a pEC50 value<6.7 (EC50>200 nM))”. Besides, at JAK2, the “JAK 2 (pKi)” value was “B (B represents a pKi value between 9 and 10 (Ki between 1 nM and 0.1 nM))”. Further, the “JAK 1 (pKi)” value at JAK1 was “B (B represents a pKi value between 9 and 10 (Ki between 1 nM and 0.1 nM))”.
`COc1cnc2cc(Nc3cc(C)[nH]n3)nc(N[C@@H]3C[C@H]4CC[C@@H](C3)N4CCC#N)c2c1` [Example 6-11]: the “Tyk 2 (pKi)” value on Tyk2 is “B (B represents a pKi value between 9 and 10 (Ki between 1 nM and 0.1 nM))”. For the same molecule, in experiment [1] (setting [4]), the “THP-1 IL4 pIC50” value is given as “A (A represents a pEC50 value≥7.5 (EC50≤32 nM))”. Moreover, at JAK2, the “JAK 2 (pKi)” value is “B (B represents a pKi value between 9 and 10 (Ki between 1 nM and 0.1 nM))”. The “JAK 1 (pKi)” value at JAK1 was “B (B represents a pKi value between 9 and 10 (Ki between 1 nM and 0.1 nM))”.
As for `COc1cnc2cc(Nc3cc(C)[nH]n3)nc(N[C@@H]3C[C@H]4CCC[C@@H](C3)N4C(=O)CN(C)C)c2c1` [Example 6-30], on Tyk2, the “Tyk 2 (pKi)” value is “B (B represents a pKi value between 9 and 10 (Ki between 1 nM and 0.1 nM))”. In experiment [1] (setting [4]), the “THP-1 IL4 pIC50” value is “C (C represents a pEC50 value<6.7 (EC50>200 nM))”. The “JAK 2 (pKi)” value at JAK2 was “B (B represents a pKi value between 9 and 10 (Ki between 1 nM and 0.1 nM))”. The “JAK 1 (pKi)” value on JAK1 is “B (B represents a pKi value between 9 and 10 (Ki between 1 nM and 0.1 nM))”.
As to `Cc1cnc2c(F)c(Nc3cc(C)[nH]n3)nc(N[C@@H]3C[C@H]4CC[C@@H](C3)N4S(=O)(=O)c3cccnc3)c2c1` [Example 8-20], the “Tyk 2 (pKi)” value on Tyk2 was “C (C represents a pKi value between 7 and 9 (Ki between 100 nM and 1 nM))”. Further, the “THP-1 IL4 pIC50” value in experiment [1] (setting [4]) is listed as “C (C represents a pEC50 value<6.7 (EC50>200 nM))”. For the same molecule, at JAK2, the “JAK 2 (pKi)” value was “C (C represents a pKi value between 7 and 9 (Ki between 100 nM and 1 nM))”. The “JAK 1 (pKi)” value at JAK1 is “B (B represents a pKi value between 9 and 10 (Ki between 1 nM and 0.1 nM))”.
